# Key:
# [1] = Int 1-4 dog plasma PK (study j); assay type: in vivo; conditions: male beagle dog; for AUC(0-inf): read-out: AUC0-inf; for MRT inf: read-out: MRT0-inf; for MRT last: read-out: MRT0-last
# Description: Objectives: to compare the plasma pharmacokinetics and stability of Int 1-4 in plasma following single intravenous infusion administration of t 1-4 at 10 mg/kg and 20 mg/kg in the male Beagle dog.
# [2] = Compound 1 and gemcitabine plasma PK in the male cynomolgus monkey (study h); assay type: in vivo; conditions: plasma; for AUC(0-inf): read-out: AUC0-inf; for MRT inf: read-out: MRT0-inf; for MRT last: read-out: MRT0-last
# Description: Objectives: to compare the plasma pharmacokinetics and stability of the Compound 1 with Int 1-4 and in plasma following a single intravenous infusion administration of Compound 1 at 5 mg/kg and 10 mg/kg with equimolar gemcitabine at 2.28 mg/kg in male cynomolgous monkeys.
# PK measurements: compare PK parameters C0, CL, Vdss, Cmax, tmax, t1/2, AUC(0-t), AUC(0-inf), MRT(0-t), MRT(0-inf) for Compound 1 and Int 1-4 with gemcitabine.
# [3] = Comparative plasma PK of Int 1-4 versus gemcitabine in mouse (study a); assay type: in vivo; conditions: plasma, CD-1 mice; for MRT inf: read-out: MRT0-inf; for MRT last: read-out: MRT0-last
# [4] = Comparative PK of Int 1-4 versus gemcitabine in rat plasma (study i); assay type: in vivo, Sprague-Dawley rats; conditions: for half-life: Sprague-Dawley, rat, iv; for MRT inf: read-out: MRT0-inf; for MRT last: read-out: MRT0-last
# Text: PK measurements: compare PK parameters C0, CL, Vdss, Cmax, tmax, t1/2, AUC(0-t), AUC(0-inf), MRT(0-t), MRT(0-inf) for Int 1-4 and gemcitabine.
# [5] = Comparative plasma PK of Compound 1 versus Int 1-4 in male CD-1 mice (study b); assay type: in vivo; conditions: male, CD-1, mouse, iv
# Description: Objectives: to compare the plasma pharmacokinetics and stability of Compound 1 with its non-phosphorylated SMDC analog (Int 1-4) and in plasma following a single intravenous infusion administration of Compound 1 at 11.6 mg/kg and 23.2 mg/kg with Int 1-4 (formulation F1 & F2) at 10.0 mg/kg in male CD-1 mice
# PK measurements: compare PK parameters C0, CL, Vdss, Cmax, tmax, t1/2, AUC(0-t), AUC(0-inf), MRT(0-t), MRT(0-inf) for Compound 1 and Int 1-4
# [6] = Comparative dog plasma PK of Int 1-4 versus gemcitabine (study k); assay type: in vivo; conditions: male beagle dog; for AUC(0-inf): read-out: AUC0-inf; for Cmax: read-out: Cmax; for MRT inf: read-out: MRT0-inf; for MRT last: read-out: MRT0-last
# Description: Objectives: to compare the plasma pharmacokinetics and stability of Int-4 in plasma following single intravenous infusion administration of Int 1-4 at 5 mg/kg and 10 mg/kg versus gemcitabine at 5 mg/kg in the male Beagle dog
# [7] = after iv Int 1-4 10 mg/kg (study j)
# [8] = after iv Int 1-4 20 mg/kg (study j)
# [9] = after iv gemcitabine 2.28 mg/kg
# [10] = mouse, after iv Int 1-4 9.4 mg/kg
# [11] = mouse, after iv gemcitabine 5.29 mg/kg
# [12] = after iv gemcitabine 5.29 mg/kg
# [13] = plasma, Sprague-Dawley rat, after iv Int 1-4 10.0 mg/kg
# [14] = plasma, Sprague-Dawley rat, after iv gemcitabine 4.47 mg/kg
# [15] = 10 mg/kg, after iv Int 1-4 10.0 mg/kg, Formulation 1
# [16] = 10 mg/kg, after iv Int 1-4 10.0 mg/kg, Formulation 2
# [17] = 11.6 mg/kg, after iv Compound 1 11.6 mg/kg
# [18] = 23.2 mg/kg, after iv Compound 1 23.2 mg/kg
# [19] = after iv Int 1-4 5 mg/kg (study k)
# [20] = after iv Int 1-4 10 mg/kg (study k)
structure (smiles),measurement,setting,value
"Nc1ccn([C@@H]2O[C@H](CO)[C@@H](O)C2(F)F)c(=O)n1 [Gemcitabine, gemcitabine]",AUC(0-t),[1]; [7],6160 ng·h/mL
same,half-life,[1]; [7],3.1 h
same,AUC(0-inf),[1]; [7],6180 ng·h/mL
same,MRT inf,[1]; [7],3.56 h
same,MRT last,[1]; [7],3.47 h
same,AUC(0-t),[1]; [8],7690 ng·h/mL
same,half-life,[1]; [8],3.55 h
same,AUC(0-inf),[1]; [8],7880 ng·h/mL
same,MRT inf,[1]; [8],3.28 h
same,MRT last,[1]; [8],2.69 h
same,AUC(0-t),[2]; after iv Compound 1 5 mg/kg,7.85 ng·h/mL
same,half-life,[2]; after iv Compound 1 5 mg/kg,7.8 min
same,AUC(0-inf),[2]; after iv Compound 1 5 mg/kg,7 ng·h/mL
same,MRT inf,[2]; after iv Compound 1 5 mg/kg,0.23 h
same,MRT last,[2]; after iv Compound 1 5 mg/kg,0.19 h
same,AUC(0-t),[2]; [9],164 ng·h/mL
same,C0,[2]; [9],13400 ng/mL
same,clearance,[2]; [9],247 mL/min/kg
same,half-life,[2]; [9],1.2 min
same,AUC(0-inf),[2]; [9],165 ng·h/mL
same,MRT inf,[2]; [9],0.02 h
same,MRT last,[2]; [9],0.02 h
same,Vd,"[2]; after iv gemcitabine 2.28 mg/kg, read-out: Vdss",0.231 L/kg
same,AUC(0-t),[3]; [10],64.9 ng·h/mL
same,half-life,[3]; [10],0.968 h
same,AUC(0-inf),"[3]; mouse, after iv Int 1-4 9.4 mg/kg, read-out: AUC0-inf",74.1 ng·h/mL
same,Cmax,"[3]; mouse, after iv Int 1-4 9.4 mg/kg, read-out: Cmax",81.9 ng/mL
same,MRT inf,[3]; [10],1.27 h
same,MRT last,[3]; [10],0.875 h
same,Tmax,"[3]; mouse, after iv Int 1-4 9.4 mg/kg, read-out: Tmax",8.34 min
same,C0,[3]; [11],6430 ng/mL
same,clearance,[3]; [11],59 mL/min/kg
same,half-life,[3]; [11],~0.9 h
same,MRT inf,[3]; [11],0.541 h
same,MRT last,[3]; [11],0.503 h
same,Vd,"[3]; mouse, after iv gemcitabine 5.29 mg/kg, read-out: Vdss",1.84 L/kg
same,AUC0-inf/AUC0-last,[3]; after iv Int 1-4 9.4 mg/kg,116%
same,AUC0-inf/AUC0-last,[3]; [12],101%
same,AUC0-last,[3]; [12],1383 ng·h/mL
same,AUC(0-inf),[3]; [12],1393 ng·h/mL
same,T1/2,[3]; [12],0.868 h
same,half-life,"[4]; plasma, 4.47 mg/kg, plasma, Sprague-Dawley rat, after iv gemcitabine 4.47 mg/kg",~3.3 h
same,half-life,"[4]; plasma, 10 mg/kg, plasma, Sprague-Dawley rat, after iv Int 1-4 10.0 mg/kg",~9.43 h
same,AUC0-inf/AUC0-last,[4]; [13],235%
same,AUC(0-inf),[4]; [13],6000 ng·h/mL
same,AUC(0-t),[4]; [13],2760 ng·h/mL
same,T1/2,[4]; [13],9.43 h
same,MRT inf,[4]; [13],13.8 h
same,MRT last,[4]; [13],3.38 h
same,clearance,"[4]; plasma, Sprague-Dawley rat, after iv gemcitabine",4.36 mL/min/kg
same,AUC0-inf/AUC0-last,[4]; [14],122%
same,AUC(0-inf),[4]; [14],18000 ng·h/mL
same,AUC(0-t),[4]; [14],14700 ng·h/mL
same,C0,[4]; [14],8410 ng/mL
same,T1/2,[4]; [14],3.26 h
same,MRT inf,[4]; [14],4.63 h
same,MRT last,[4]; [14],2.82 h
same,Vd,"[4]; plasma, Sprague-Dawley rat, after iv gemcitabine 4.47 mg/kg, read-out: Vdss",1.21 L/kg
same,plasma half-life in rats relative to mice,"[4]; rat versus mouse plasma, iv gemcitabine",3 ×
same,AUC(0-t),[5]; [15],98.6 ng·h/mL
same,half-life,[5]; [15],1.62 h
same,AUC(0-inf),"[5]; 10 mg/kg, after iv Int 1-4 10.0 mg/kg, Formulation 1, read-out: AUC0-inf",120 ng·h/mL
same,Cmax,"[5]; 10 mg/kg, after iv Int 1-4 10.0 mg/kg, Formulation 1, read-out: Cmax",107 ng/mL
same,MRT inf,"[5]; 10 mg/kg, after iv Int 1-4 10.0 mg/kg, Formulation 1, read-out: MRT0-inf",1.98 h
same,MRT last,"[5]; 10 mg/kg, after iv Int 1-4 10.0 mg/kg, Formulation 1, read-out: MRT0-last",1.15 h
same,Tmax,"[5]; 10 mg/kg, after iv Int 1-4 10.0 mg/kg, Formulation 1, read-out: Tmax",3.67 min
same,AUC(0-t),[5]; [16],85.1 ng·h/mL
same,half-life,[5]; [16],1.66 h
same,AUC(0-inf),"[5]; 10 mg/kg, after iv Int 1-4 10.0 mg/kg, Formulation 2, read-out: AUC0-inf",102 ng·h/mL
same,Cmax,"[5]; 10 mg/kg, after iv Int 1-4 10.0 mg/kg, Formulation 2, read-out: Cmax",93.6 ng/mL
same,MRT inf,"[5]; 10 mg/kg, after iv Int 1-4 10.0 mg/kg, Formulation 2, read-out: MRT0-inf",2.1 h
same,MRT last,"[5]; 10 mg/kg, after iv Int 1-4 10.0 mg/kg, Formulation 2, read-out: MRT0-last",1.25 h
same,Tmax,"[5]; 10 mg/kg, after iv Int 1-4 10.0 mg/kg, Formulation 2, read-out: Tmax",2 min
same,AUC(0-t),[5]; [17],97.9 ng·h/mL
same,half-life,[5]; [17],1.04 h
same,AUC(0-inf),"[5]; 11.6 mg/kg, after iv Compound 1 11.6 mg/kg, read-out: AUC0-inf",112 ng·h/mL
same,Cmax,"[5]; 11.6 mg/kg, after iv Compound 1 11.6 mg/kg, read-out: Cmax",152 ng/mL
same,MRT inf,"[5]; 11.6 mg/kg, after iv Compound 1 11.6 mg/kg, read-out: MRT0-inf",1.41 h
same,MRT last,"[5]; 11.6 mg/kg, after iv Compound 1 11.6 mg/kg, read-out: MRT0-last",1.01 h
same,Tmax,"[5]; 11.6 mg/kg, after iv Compound 1 11.6 mg/kg, read-out: Tmax",1.5 min
same,AUC(0-t),[5]; [18],202 ng·h/mL
same,half-life,[5]; [18],1.03 h
same,AUC(0-inf),"[5]; 23.2 mg/kg, after iv Compound 1 23.2 mg/kg, read-out: AUC0-inf",218 ng·h/mL
same,Cmax,"[5]; 23.2 mg/kg, after iv Compound 1 23.2 mg/kg, read-out: Cmax",222 ng/mL
same,MRT inf,"[5]; 23.2 mg/kg, after iv Compound 1 23.2 mg/kg, read-out: MRT0-inf",1.4 h
same,MRT last,"[5]; 23.2 mg/kg, after iv Compound 1 23.2 mg/kg, read-out: MRT0-last",1.11 h
same,Tmax,"[5]; 23.2 mg/kg, after iv Compound 1 23.2 mg/kg, read-out: Tmax",2 min
same,AUC(0-t),[6]; [19],2330 ng·h/mL
same,half-life,[6]; [19],2.01 h
same,AUC(0-inf),[6]; [19],2390 ng·h/mL
same,Cmax,[6]; [19],872 ng/mL
same,MRT inf,[6]; [19],2.7 h
same,MRT last,[6]; [19],2.48 h
same,AUC(0-t),[6]; [20],4140 ng·h/mL
same,half-life,[6]; [20],1.6 h
same,AUC(0-inf),[6]; [20],4290 ng·h/mL
same,MRT inf,[6]; [20],2.45 h
same,MRT last,[6]; [20],2.16 h
same,AUC(0-t),[6]; [12],8230 ng·h/mL
same,C0,[6]; [12],11500 ng/mL
same,clearance,[6]; [12],11 mL/min/kg
same,half-life,[6]; [12],2.04 h
same,AUC(0-inf),[6]; [12],8600 ng·h/mL
same,Cmax,[6]; [12],8620 ng/mL
same,MRT last,[6]; [12],2.19 h
same,Vd,"[6]; after iv gemcitabine 5.29 mg/kg, read-out: Vdss",1.61 L/kg

# Reference: patent US11760773B2, “Small molecule drug conjugates of gemcitabine monophosphate” (MaveriX Oncology, Inc., priority 2018, dated 2023)
